Source: ChEMBL document CHEMBL3297726, “Isolation and structure elucidation of cystargamide, a lipopeptide from Kitasatospora cystarginea” (J Nat Prod, 2014)
Calls of active or inactive are those of the source. Positions of bridges follow the written chain, without caps; N, C: chain ends. Non-standard residues stand in square brackets, D forms with d. Residues, ends and D or L forms follow the SMILES beside them. *: point of attachment. Trp(5-OH) = N[C@@H](Cc1c[nH]c2ccc(O)cc12)C(=O)O; Hpg = N[C@H](C(=O)O)c1ccc(O)cc1; X1 = CCCCCCCC1OC1C(=O)*

How the values were obtained:
Type in all cases: functional, organism-based
[1] = test system: Candida albicans; test: Antimicrobial activity against Candida albicans ATCC 14035 assessed as growth inhibition at 128 ug/ml
[2] = test system: Staphylococcus aureus; test: Antimicrobial activity against methicillin-resistant Staphylococcus aureus ATCC 33591 assessed as growth inhibition at 128 ug/ml
[3] = test system: Enterococcus faecium; test: Antimicrobial activity against vancomycin-resistant Enterococcus faecium EF379 assessed as growth inhibition at 128 ug/ml
[4] = test system: Staphylococcus warneri; test: Antimicrobial activity against Staphylococcus warneri ATCC 17917 assessed as growth inhibition at 128 ug/ml

Measured: growth inhibition (GI)

CCCCCCCC1OC1C(=O)N[C@@H]1C(=O)N[C@@H](Cc2ccccc2)C(=O)N[C@@H](CCC(=O)O)C(=O)N[C@@H](Cc2c[nH]c3ccc(O)cc23)C(=O)N[C@@H](c2ccc(O)cc2)C(=O)NCC(=O)O[C@@H]1C (some centres undefined) (X1-TFE[Trp(5-OH)][Hpg]G; ester 1-C)
inactive: [1] | [2] | [3] | [4]
